The results in this text go back to ChEMBL document CHEMBL1134660, “Design, synthesis, and evaluation of a long-acting, potent analogue of gonadotropin-releasing hormone” (J Med Chem, 2001).

For the experiment, the target named is T1, Gonadotropin-releasing hormone receptor (Rattus norvegicus, UniProt P30969).
T1 sequence (P30969 whole entry): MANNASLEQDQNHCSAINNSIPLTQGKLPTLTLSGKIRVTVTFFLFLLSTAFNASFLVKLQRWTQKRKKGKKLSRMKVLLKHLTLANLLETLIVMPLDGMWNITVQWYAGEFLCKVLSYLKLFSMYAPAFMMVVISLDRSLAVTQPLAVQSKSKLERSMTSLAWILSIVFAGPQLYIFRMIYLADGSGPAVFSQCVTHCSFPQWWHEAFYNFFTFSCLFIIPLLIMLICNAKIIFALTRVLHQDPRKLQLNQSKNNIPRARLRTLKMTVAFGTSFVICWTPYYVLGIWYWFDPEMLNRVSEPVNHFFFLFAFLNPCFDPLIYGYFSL
In words: Evaluated for gonadotropin-releasing hormone receptor binding by displacing the 50% of the bound tracer [125I][D-Lys6]-GnRH radioligand in rat pituitary receptors.

Each structure is given as a SMILES string.

A word on the IC50: it is the point on the concentration scale where inhibition reaches its midpoint. A lower IC50 goes with higher potency. As to `CC(C)C[C@H](NC(=O)[C@@H](CCCCNC(=O)CCCC(=O)OCc1ccc2c(c1)C(=O)c1ccccc1C2=O)NC(=O)[C@H](Cc1ccc(O)cc1)NC(=O)[C@H](CO)NC(=O)[C@H](Cc1c[nH]c2ccccc12)NC(=O)[C@H](Cc1c[nH]cn1)NC(=O)[C@@H]1CCC(=O)N1)C(=O)N[C@@H](CCCNC(=N)N)C(=O)N1CCC[C@H]1C(=O)NCC(N)=O`, the half-maximal inhibitory concentration (IC50) was determined as 2 pM.
